Assay results from patent US5773423A (priority 1994, dated 1998).
Read-outs that look alike come from different tables or passages of the source.

Legend:
[1] = biological target: T1, A2 receptors from rat striatal membranes (Rattus norvegicus, UniProt P30543); assay: Radioligand binding at A2 (A2a) receptors, displacement of [3H]CGS 21680 (or [3H]NECA with 50 nM CPA) from rat striatal membranes
T1 construct: Rat cerebral cortical and striatal membranes were prepared; from tissue; host or cells: rat striatal membranes

[2] = biological target: T2, A1 receptors from rat brain membranes (Rattus norvegicus, UniProt P25099); assay: biochemical; type: binding; settings: for inhibition at 100 µM: read-out: A1 percent displacement; for Ki: rat brain membranes
T2 construct: Rat cerebral cortical and striatal membranes were prepared; from tissue; host or cells: rat brain (cerebral cortical) membranes
T2 sequence (P25099 1-326): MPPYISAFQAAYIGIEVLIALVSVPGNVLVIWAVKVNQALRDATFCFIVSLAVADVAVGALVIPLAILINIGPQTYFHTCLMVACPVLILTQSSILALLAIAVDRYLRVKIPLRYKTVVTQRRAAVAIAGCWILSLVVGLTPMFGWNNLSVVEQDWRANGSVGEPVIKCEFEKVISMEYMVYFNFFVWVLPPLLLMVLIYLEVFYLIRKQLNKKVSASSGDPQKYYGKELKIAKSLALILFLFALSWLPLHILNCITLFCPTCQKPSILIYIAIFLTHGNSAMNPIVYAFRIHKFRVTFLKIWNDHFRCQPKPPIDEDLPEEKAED

[3] = read-out: A2 percent displacement
[4] = rat striatal membranes, displacement of [3H]CGS 21680 (or [3H]NECA + 50 nM CPA), read-out: A2 affinity Ki
[5] = displacement of [3H]PIA (or [3H]CHA), read-out: A1 affinity Ki
[6] = read-out: percent displacement of radioligand at A2
[7] = Table 2, [3H]CGS 21680, rat striatal membranes, read-out: Ki (A2)
[8] = at 100 μM, read-out: A2 percent displacement

T1 sequence (P30543 whole entry): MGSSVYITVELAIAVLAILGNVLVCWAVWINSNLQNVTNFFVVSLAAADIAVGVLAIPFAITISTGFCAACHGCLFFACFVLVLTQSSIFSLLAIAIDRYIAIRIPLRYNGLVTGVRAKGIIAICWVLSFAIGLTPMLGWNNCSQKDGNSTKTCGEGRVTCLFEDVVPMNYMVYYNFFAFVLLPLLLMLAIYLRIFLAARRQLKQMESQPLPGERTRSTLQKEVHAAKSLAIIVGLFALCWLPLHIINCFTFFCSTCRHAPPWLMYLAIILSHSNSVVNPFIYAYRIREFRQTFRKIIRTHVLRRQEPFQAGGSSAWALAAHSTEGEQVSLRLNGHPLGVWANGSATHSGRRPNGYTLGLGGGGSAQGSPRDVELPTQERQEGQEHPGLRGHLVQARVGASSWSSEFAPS

SMILES	Ki [1, 4]	Ki [2, 5]	further results
CCNC(=O)[C@H]1O[C@@H](n2cnc3c(=O)[nH]cnc32)[C@H](O)[C@@H]1O [Compound 91, inosine-5'-N-ethyluronamide]			IC50 [1]: > 100000 nM; inhibition at 100 µM [1, 3]: 30.6 ± 2.3%; IC50 [2]: > 100000 nM; inhibition at 100 µM [2]: 43.7 ± 10.3%
O=C(NC1CC1)[C@H]1O[C@@H](n2cnc3c(NCc4ccccc4)ncnc32)[C@H](O)[C@@H]1O [Compound 24, N^6-benzyladenosine-5'-N-cyclopropyluronamide]	55 ± 6 nM		
CCCn1c(=S)[nH]c(=O)c2[nH]cnc21 [Compound 114, 2-thio-3-propylX, reference compound]	32500 nM	26100 nM	
CCCn1c(=O)c2c(ncn2[C@@H]2O[C@H](CO)[C@@H](O)[C@H]2O)n(CCC)c1=O [Compound 118, 1,3-di-n-propylxanthine-7-β-D-ribofuranoside, reference compound]		15900 nM	inhibition at 100 µM [1, 3]: 32 ± 1.1%; inhibition at 100 µM [1, 6]: 32%
CCCCCCn1c(=O)c2c(ncn2[C@@H]2O[C@H](C(=O)NC)[C@@H](O)[C@H]2O)n(CCCCCC)c1=O [Example 69, N-methyl 1,3-di-n-hexylxanthine-7-β-D-ribofuronamide]			inhibition at 100 µM ([1]; Table 4, at 10^-4 M, read-out: percent displacement of radioligand at A2): 0%
CNC(=O)[C@H]1O[C@@H](n2cnc3c(NCc4cccc(N)c4)ncnc32)[C@H](O)[C@@H]1O [Compound 44, N^6-(3-aminobenzyl)adenosine-5'-N-methyluronamide]	794 ± 118 nM		
CCNC(=O)[C@H]1O[C@@H](n2cnc3c(=N)n(Cc4ccc([N+](=O)[O-])cc4)cnc32)[C@H](O)[C@@H]1O [Compound 37]	190 ± 52 nM	341 ± 52 nM	
Nc1ccc(CCNc2ncnc3c2ncn3[C@@H]2O[C@H](CO)[C@@H](O)[C@H]2O)cc1 [APNEA, N^6-2-(4-aminophenyl)ethyladenosine, reference compound]			Ki [1, 7]: 172 ± 50 nM; A1 selectivity [2]: 8 fold
Nc1ncnc2c1ncn2[C@H]1C[C@H](O)[C@@H](CO)O1 [Compound 70, 2'-deoxyadenosine, reference compound]			inhibition at 100 µM [1, 8]: 38.9 ± 2.9%; inhibition at 100 µM ([2]; at 100 μM): 30.9 ± 8%
CCCCn1c(=O)c2c(ncn2[C@@H]2O[C@H](C(N)=O)[C@@H](O)[C@H]2O)n(CCCC)c1=O [Compound 123, 1,3-di-n-butylxanthine-7-β-D-ribofuronamide]	59200 nM	2940 nM	
CNC(=O)[C@H]1O[C@@H](n2cnc3c(NCc4cccc(Br)c4)ncnc32)[C@H](O)[C@@H]1O [Compound 41, N^6-(3-bromobenzyl)-NMCA]	64 ± 9 nM	65 ± 2 nM	
CNC(=O)[C@H]1O[C@@H](n2cnc3c(NCc4cccc(NC(C)=O)c4)ncnc32)[C@H](O)[C@@H]1O [Compound 45, N^6-(3-acetamidobenzyl)-NMCA]		7370 nM	inhibition at 100 µM [1, 3]: 12.5 ± 1.9%
CCNC(=O)[C@H]1O[C@@H](n2cnc3c(NCc4ccccc4[N+](=O)[O-])ncnc32)[C@H](O)[C@@H]1O [Compound 61, N^6-(2-nitrobenzyl)adenosine-5'-N-ethyluronamide]	24 ± 3 nM	31 ± 4 nM	
CCNC(=O)[C@H]1O[C@@H](n2cnc3c(NCc4cccc(Cl)c4)ncnc32)[C@H](O)[C@@H]1O [Compound 58, N^6-(3-chlorobenzyl)adenosine-5'-N-ethyluronamide]	19 ± 0.3 nM	22 ± 3 nM	
CCNC(=O)[C@H]1O[C@@H](n2cnc3c(N[C@@H](C)c4ccccc4)ncnc32)[C@H](O)[C@@H]1O [Compound 56, N^6 -(S-phenylethyl)-NECA]	1650 nM		
CCNC(=O)[C@H]1O[C@@H](n2cnc3c(NCc4cccc(I)c4)ncnc32)[C@H](O)[C@@H]1O [Compound 60, N^6-(3-iodobenzyl)-NECA]	7.2 ± 0.6 nM	7.7 ± 0.9 nM	
CNC(=O)[C@H]1O[C@@H](n2cnc3c(NCc4ccc(N)cc4)ncnc32)[C@H](O)[C@@H]1O [Compound 50, N^6-(4-aminobenzyl)-NMCA]	1590 nM	431 ± 45 nM	
Nc1nc(NCc2cccc(I)c2)c2ncn([C@@H]3O[C@H](CO)[C@@H](O)[C@H]3O)c2n1 [Example 43, 2-amino-N^6-(3-iodobenzyl)-9-[β-D-ribofuranosyl]-adenine]			factor less potent than N6-(3-iodobenzyl)-adenosine at A2a receptors [1]: 6.7 factor; Ki [1, 7]: 117 ± 15 nM; factor less potent than N6-(3-iodobenzyl)-adenosine at A1 receptors [2]: 3.2 factor; Ki ([2]; Table 2, [3H]PIA, read-out: Ki (A1)): 63.8 ± 15.1 nM
CC(C)(C)OC(=O)NCCNC(=O)[C@H]1O[C@@H](n2cnc3c(N)ncnc32)[C@H](O)[C@@H]1O [Compound 26, 5'-N-boc-aminoethylaminocarboxamidoadenosine]			inhibition at 100 µM [1, 3]: 0%; inhibition at 100 µM ([2]; at 100 μM): 0%
CCCCn1c(=O)c2c(ncn2[C@@H]2O[C@H](C(=O)OC)[C@@H](O)[C@H]2O)n(CCCC)c1=O [Compound 122, methyl 1,3-di-n-butylxanthine-7-β-D-ribofuronate]			inhibition at 3 µM [1, 6]: 0%; Ki ([2]; Table 4, [3H]PIA, read-out: Ki (A1)): 3720 nM
CCNC(=O)[C@H]1O[C@@H](n2cnc3c(N[C@H](C)c4ccccc4)ncnc32)[C@H](O)[C@@H]1O [Compound 55, N^6 -(R-phenylethyl)-NECA]	259 ± 15 nM	3.2 ± 0.1 nM	

SMILES	Ki [1, 4]	Ki [2, 5]	further results
Nc1ncnc2c1ncn2[C@]1(CO)O[C@H](CO)[C@@H](O)[C@H]1O [Compound 80, β-D-psicofuranosyladenine, reference compound]			inhibition at 100 µM [1, 8]: 51.5 ± 7.4%; inhibition at 100 µM [2]: 36.1 ± 4.9%
CCNC(=O)[C@H]1O[C@@H](n2cnc3c(NCc4ccccc4OC)ncnc32)[C@H](O)[C@@H]1O [Compound 65, N^6-(2-methoxybenzyl)-NECA]	21 ± 3 nM	52 ± 5 nM	
NC[C@H]1O[C@@H](n2cnc3c(N)ncnc32)[C@H](O)[C@@H]1O [Compound 74, 5'-deoxy-5'-aminoadenosine, reference compound]		42700 nM	
CNC(=O)[C@H]1O[C@@H](n2cnc3c(NCc4ccc(Br)cc4)ncnc32)[C@H](O)[C@@H]1O [Compound 49, N^6-(4-bromobenzyl)-NMCA]	2460 nM		
CCCCCn1c(=O)c2c(ncn2[C@@H]2O[C@H](C(=O)NC)[C@@H](O)[C@H]2O)n(CCCCC)c1=O [Example 68, N-methyl 1,3-di-n-pentylxanthine-7-β-D-ribofuronamide]			inhibition at 100 µM [1, 6]: 2%
O=c1c2[nH]cnc2n(Cc2ccccc2)c(=O)n1Cc1ccccc1 [Compound 111, 1,3-dibenzylX, reference compound]			inhibition at 10 µM ([1]; at 10 μM, read-out: A2 percent displacement): 3.61 ± 0.94%
CCCCn1c(=O)c2c(ncn2[C@@H]2O[C@H](C(N)=O)[C@@H](O)[C@H]2O)n(CCCC)c1=O			A2a affinity decrease vs 1,3-di-n-butylxanthine-7-β-D-ribofuranoside [1]: 2.8 fold
CCNC(=O)[C@H]1O[C@@H](n2cnc3c(N)[n+]([O-])cnc32)[C@H](O)[C@@H]1O [Compound 35, adenosine-5'-N-ethyluronamide-N^1-oxide]	101 ± 19 nM		
CNC(=O)[C@H]1O[C@@H](n2cnc3c(NCc4cccc([N+](=O)[O-])c4)ncnc32)[C@H](O)[C@@H]1O [Compound 43, N^6-(3-nitrobenzyl)-NMCA]	441 ± 45 nM		
CCCCn1c(=O)c2c(ncn2[C@@H]2O[C@H](C(=O)NC)[C@@H](O)[C@H]2O)n(CCCC)c1=O [Compound 124, N-methyl 1,3-di-n-butylxanthine-7-β-D-ribofuronamide]			inhibition at 100 µM [2]: 30%
CCCCCCn1c(=O)c2c(ncn2[C@@H]2O[C@H](CO)[C@@H](O)[C@H]2O)n(CCCCCC)c1=O [Example 64, 1,3-di-n-hexylxanthine-7-β-D-ribofuranoside]			inhibition at 10 µM [1, 6]: 7.8%; inhibition at 100 µM [1, 6]: 69 ± 2%
Cn1c(=O)[nH]c(=O)c2[nH]cnc21 [Compound 100, 3-methylX, reference compound]			inhibition at 100 µM [1, 3]: 38 ± 0.9%
CCCCCC[C@H]([C@H](C)O)n1cnc2c(N)ncnc21 (relative stereo) [Compound 96, erythro-9-(2-hydroxy-3-nonyl)adenine, reference compound]			inhibition at 100 µM [1, 8]: 59.6 ± 2.8%
Cn1c(=O)c2ncn(C)c2n(C)c1=O [Compound 113, 1,3,9-trimethylX, reference compound]			inhibition at 100 µM [1, 3]: 14.4 ± 5.7%
Nc1nccc2c1ncn2[C@@H]1O[C@H](CO)[C@@H](O)[C@H]1O [Compound 32, 3-deazaadenosine, reference compound]	59800 nM		
CNC(=O)[C@H]1O[C@@H](n2cnc3c(NCc4cccc(C(F)(F)F)c4)ncnc32)[C@H](O)[C@@H]1O [Compound 47, N^6-(3-trifluoromethylbenzyl)adenosine-5'-N-methyluronamide]	574 ± 49 nM		
Cn1c(=O)c2c(ncn2CCO)n(C)c1=O [Compound 116, 7-β-hydroxyethylT, reference compound]	17400 nM		
CCCCn1c(=O)c2[nH]cnc2n(CCCC)c1=O [Compound 109, 1,3-di-n-butyl-xanthine, reference compound]	2930 nM		
CNC(=O)[C@H]1O[C@@H](n2cnc3c(NCc4ccc(Cl)cc4)ncnc32)[C@H](O)[C@@H]1O [Compound 48, N^6-(4-chlorobenzyl)-NMCA]	2730 nM		
CNC(=O)[C@H]1O[C@@H](n2cnc3c(NCc4ccc(N)c(I)c4)ncnc32)[C@H](O)[C@@H]1O [Compound 51, N^6-(4-amino-3-iodobenzyl)adenosine-5'-N-methyluronamide]	316 ± 43 nM		displacement of radioligand from A2a (in words) [1]: not A1 or A2a receptors
